Assay results published in US20150236379A1, “ADDITIVES FOR GALVANIC CELLS” (ROCKWOOD LITHIUM GMBH, priority 2012, published 2015).
Where two headings read alike, the source gives them in different places.

Tests used:
[1] = Solubility in conventional battery solvents; type: physicochemical
Source text: This was not to be expected, since it is known that many Cs salts having large, weakly coordinating anions are relatively poorly soluble in water (A. Nadjafi, Microchim. Acta 1973, 689-696).
The abbreviation BOB stands for bis-(oxalato)borate (C4O8B)^−, BMB for bis-(malonato)borate (C6H4O8B)^−, NMP for N-methylpyrrolidone, EC for ethylene carbonate, DMC for dimethyl carbonate, EMC for ethyl methyl carbonate and PC for propylene carbonate.

[2] = Thermal stability, thermogravimetric experiment under argon flow; type: physicochemical
Experimental: In a 1-L round-bottom glass flask, 38.67 g boric acid and […] oxalic acid dihydrate were suspended in 121 g water. 102.9 g cesium carbonate was added in portions, with magnetic stirring (vigorous foaming due to CO2 generation). After the addition was complete, the white suspension was evaporated on a rotary evaporator, initially at 100° C. and 400 mbar. The colorless solid residue was then ground and subjected to final drying at 180° C. and 20 mbar for 3 h. • Yield: 197.3 g of colorless powder (97% of theoretical) • Cs content: 41.0% • […] ^11B=7.4 ppm (solution in DMSO-d6) • Thermal stability: 290° C. (onset of thermal decomposition in the thermogravimetric experiment under argon flow)

[3] = Cs content (FES) in filtered electrolyte solution after stirring with excess additive; type: physicochemical; settings: stirred 24 h, membrane filtered
Experimental: (§1) In an Ar-filled glove box, 10 g of an 11 wt.-% LiBOB solution in ethylene carbonate/ethylmethyl carbonate (1:1, wt./wt.) was mixed with 0.32 g CsBOB and magnetically stirred for 24 h. The suspension was then filter-clarified by membrane filtration ([…] PTFE). • Cs content (FES) in the electrolyte solution: 0.05 wt.-%
as §1, with “a 10 wt-% […]” for “an 11 wt.-% LiBOB”, “0.47” for “0.32”, “CsClO4” for “CsBOB”, “0.07” for “0.05”

[4] = Additive salt solubility in lithium conducting salt electrolyte solutions
[5] = cited from earlier work
[6] = supporting electrolyte LiBOB, 10% EC/EMC
[7] = supporting electrolyte LiPF6, 10% EC/EMC

| SMILES | Solubility ([1]; solvent EC/DMC (1:1)) | Solubility (Wt. %) ([1]; solvent EC/DMC (1:1)) | Solubility ([1]; solvent NMP) | Solubility (Wt. %) ([1]; solvent NMP) | Solubility ([1]; solvent PC) | Solubility (Wt. %) ([1]; solvent PC) | Thermal stability (onset of thermal decomposition) [2] | Cs content (FES) in the electrolyte solution ([3]; 11 wt.-% LiBOB in EC/EMC (1:1, wt./wt.)) | Additive Salt Solubility [4, 6] | Additive Salt Solubility (wt.-%) [4, 6] | Additive Salt Solubility [4, 7] | Additive Salt Solubility (wt.-%) [4, 7] | Solubility [1] | Solubility (Wt. %) [1] | Cs content (FES) in the electrolyte solution ([3]; 10 wt-% LiPF5 in EC/EMC (1:1, wt./wt.)) | solubility in water ([5]; 0° C.) | solubility in water ([5]; 25° C.) |
| --- | --- | --- | --- | --- | --- | --- | --- | --- | --- | --- | --- | --- | --- | --- | --- | --- | --- |
| O=C1O[B-]2(OC1=O)OC(=O)C(=O)O2.[Cs+] [CsBOB, Cesium bis(oxalato)borate] | 70 mM | 1.8 Wt. % | 270 mM | 7.9 Wt. % | 60 mM | 1.5 Wt. % | 290 °C | 0.05 wt.-% | 4 mM | 0.12 wt.-% | 40 mM | 1.2 wt.-% |  |  |  |  |  |
| O=C1CC(=O)O[B-]2(O1)OC(=O)CC(=O)O2.[Cs+] [CsBMB] |  |  |  |  |  |  |  |  |  |  |  |  | 50 mM | 1.8 Wt. % |  |  |  |
| O=C1O[B-]2(OC1=O)OC(=O)C(=O)O2.[Rb+] [RbBOB] |  |  |  |  |  |  |  |  | 1 mM | 0.03 wt.-% | 40 mM | 1.2 wt.-% | 30 mM | 0.64 Wt. % |  |  |  |
| [Cs+].[O-][Cl+3]([O-])([O-])[O-] [CsClO4, cesium perchlorate] |  |  |  |  | 70 mM | 1.3 Wt. % |  |  | 5 mM | 0.12 wt.-% | 40 mM | 0.9 wt.-% |  |  | 0.07 wt.-% | 0.8 g/100 mL | 1.97 g/100 mL |
